system: YAP/TAZ-TEAD transcription; assay: Reporter gene assay for measuring the inhibition of YAP/TAZ-TEAD transcription (TEAD-responsive element luciferase reporter in Hek293T cells); format: cell-based; conditions: Homo sapiens, HEK-293T, 24 h, Hek293T cells transiently transfected with TEAD-responsive element luciferase reporter; 24 hours incubation
Method: Hek293T cells are cultured in DMEM supplemented with 10% fetal bovine serum, Sodium pyruvate, Sodium bicarbonate, L-glutamine. The cells are harvested and transiently transfected with TEAD-responsive element luciferase reporter. Transfected cells are plated in 384-wells plate containing pre-diluted compounds. After 24 hours incubation at 37° C./5% CO2, assay plates were cooled down to RT and levelled to an equal volume per well, prior to the addition of 25 uL luciferase substrate SteadyLite (Perkin Elmer)/well. The plate was shaken for 10 min at 600 rpm, centrifuged for 1 min at 500 rpm and measured with an Envision reader (PerkinElmer). The amount of relative light units produced by the TEAD reporter is used to calculated percent of inhibition. The percent of reporter inhibition was calculated in the presence of a positive control inhibitor (100% inhibition) versus a condition with the presence of the vehicle basal activity of the reporter (0% inhibition). The ability of a test compound to inhibit this activity was determined as: Percentage inhibition=[[…]((RLU determined in the presence of vehicle−RLU determined for sample with test compound present) divided by (RLU determined in the presence of vehicle−RLU determined for sample with positive control inhibitor))]*100
The activities of example compounds tested are depicted in the table below. The activity ranges A, B and C refer to IC50 values in the reporter gene assay as follows: “A”: IC50<1 μM; “B”: 1 μM≤IC50≤20 μM and “C”: IC50>20 μM; NT=not tested.

IC50 | Compound
1000 to 20000 nM | CCC(=O)NC1Cc2ccccc2N(c2ccc(C(F)(F)F)cc2)C1 (stereo not drawn) [compound 037, N-(1-(4-(trifluoromethyl)phenyl)-1,2,3,4-tetrahydroquinolin-3-yl)propionamide]
1000 to 20000 nM | CC(C)=CC(=O)NC1Cc2ccccc2N(c2ccc(C(F)(F)F)cc2)C1 (stereo not drawn) [compound 038, 3-methyl-N-(1-(4-(trifluoromethyl)phenyl)-1,2,3,4-tetrahydroquinolin-3-yl)but-2-enamide]
< 1000 nM | C#CC(=O)NC1Cc2ccccc2N(c2ccc(C(F)(F)F)cc2)C1 (stereo not drawn) [compound 040, N-(1-(4-(trifluoromethyl)phenyl)-1,2,3,4-tetrahydroquinolin-3-yl)propiolamide]
1000 to 20000 nM | CN(C)C/C=C/C(=O)NC1Cc2ccccc2N(c2ccc(C(F)(F)F)cc2)C1 (stereo not drawn) [compound 041, (E)-4-(dimethylamino)-N-(1-(4-(trifluoromethyl)phenyl)-1,2,3,4-tetrahydroquinolin-3-yl)but-2-enamide]
1000 to 20000 nM | N#CC1CN(C2Cc3ccccc3N(c3ccc(C(F)(F)F)cc3)C2)C1=O (stereo not drawn) [compound 042, 2-oxo-1-(1-(4-(trifluoromethyl)phenyl)-1,2,3,4-tetrahydroquinolin-3-yl)azetidine-3-carbonitrile]
< 1000 nM | OCCNC1Cc2ccccc2N(c2ccc(C(F)(F)F)cc2)C1 (stereo not drawn) [compound 043, 2-((1-(4-(trifluoromethyl)phenyl)-1,2,3,4-tetrahydroquinolin-3-yl)amino)ethan-1-ol]
> 20000 nM | O=C(O)CNC1Cc2ccccc2N(c2ccc(C(F)(F)F)cc2)C1 (stereo not drawn) [compound 044, (1-(4-(trifluoromethyl)phenyl)-1,2,3,4-tetrahydroquinolin-3-yl)glycine]
1000 to 20000 nM | OCCCNC1Cc2ccccc2N(c2ccc(C(F)(F)F)cc2)C1 (stereo not drawn) [compound 045, 3-((1-(4-(trifluoromethyl)phenyl)-1,2,3,4-tetrahydroquinolin-3-yl)amino)propan-1-ol]
< 1000 nM | O=C(O)CCNC1Cc2ccccc2N(c2ccc(C(F)(F)F)cc2)C1 (stereo not drawn) [compound 046, 3-((1-(4-(trifluoromethyl)phenyl)-1,2,3,4-tetrahydroquinolin-3-yl)amino)propanoic acid]
< 1000 nM | CS(=O)(=O)NC1Cc2ccccc2N(c2ccc(C(F)(F)F)cc2)C1 (stereo not drawn) [compound 047, N-(1-(4-(trifluoromethyl)phenyl)-1,2,3,4-tetrahydroquinolin-3-yl)methanesulfonamide]
< 1000 nM | C=CS(=O)(=O)NC1Cc2ccccc2N(c2ccc(C(F)(F)F)cc2)C1 (stereo not drawn) [compound 048, N-(1-(4-(trifluoromethyl)phenyl)-1,2,3,4-tetrahydroquinolin-3-yl)ethenesulfonamide]

The remaining lines, values behind:

Compound | IC50
C=CC(=O)NC1Cc2ccccc2N(c2ccc(C(F)(F)F)nc2)C1 (stereo not drawn) [compound 010, N-(1-(6-(trifluoromethyl)pyridin-3-yl)-1,2,3,4-tetrahydroquinolin-3-yl)acrylamide] | < 1000 nM
C=CC(=O)NC1Cc2ccccc2N(c2ccc(C(F)(F)F)cn2)C1 (stereo not drawn) [compound 011, N-(1-(5-(trifluoromethyl)pyridin-2-yl)-1,2,3,4-tetrahydroquinolin-3-yl)acrylamide] | < 1000 nM
C=CC(=O)NC1Cc2ccccc2N(c2ccnc(C(F)(F)F)c2)C1 (stereo not drawn) [compound 012, N-(1-(2-(trifluoromethyl)pyridin-4-yl)-1,2,3,4-tetrahydroquinolin-3-yl)acrylamide] | 1000 to 20000 nM
C=CC(=O)NC1Cc2ccccc2N(C2CCCCC2)C1 (stereo not drawn) [compound 013, N-(1-cyclohexyl-1,2,3,4-tetrahydroquinolin-3-yl)acrylamide] | < 1000 nM
C=CC(=O)NC1Cc2ccccc2N(c2ccc(C(=O)NC)cc2)C1 (stereo not drawn) [compound 014, 4-(3-acrylamido-3,4-dihydroquinolin-1(2H)-yl)-N-methylbenzamide] | 1000 to 20000 nM
C=CC(=O)NC1Cc2ccccc2N(c2cccc(NC(C)=O)c2)C1 (stereo not drawn) [compound 015, N-(1-(3-acetamidophenyl)-1,2,3,4-tetrahydroquinolin-3-yl)acrylamide] | 1000 to 20000 nM
C=CC(=O)NC1Cc2ccccc2N(c2ccc3[nH]ccc3c2)C1 (stereo not drawn) [compound 016, N-(1-(1H-indol-5-yl)-1,2,3,4-tetrahydroquinolin-3-yl)acrylamide] | 1000 to 20000 nM
C=CC(=O)NC1Cc2ccccc2N(c2ccc3cc[nH]c3c2)C1 (stereo not drawn) [compound 017, N-(1-(1H-indol-6-yl)-1,2,3,4-tetrahydroquinolin-3-yl)acrylamide] | < 1000 nM
C=CC(=O)NC1Cc2ccccc2N(c2ccc(F)c(F)c2)C1 (stereo not drawn) [compound 018, N-(1-(3,4-difluorophenyl)-1,2,3,4-tetrahydroquinolin-3-yl)acrylamide] | < 1000 nM
C=CC(=O)NC1Cc2ccccc2N(c2ccc(C3CCCCC3)cc2)C1 (stereo not drawn) [compound 019, N-(1-(4-cyclohexylphenyl)-1,2,3,4-tetrahydroquinolin-3-yl)acrylamide] | < 1000 nM
C=CC(=O)NC1Cc2ccccc2N(c2ccc(C(F)F)cc2)C1 (stereo not drawn) [compound 020, N-(1-(4-(difluoromethyl)phenyl)-1,2,3,4-tetrahydroquinolin-3-yl)acrylamide] | < 1000 nM
C=CC(=O)NC1Cc2ccccc2N(c2ccc(OC(F)F)cc2)C1 (stereo not drawn) [compound 022, N-(1-(4-(difluoromethoxy)phenyl)-1,2,3,4-tetrahydroquinolin-3-yl)acrylamide] | < 1000 nM
C=CC(=O)NC1Cc2ccccc2N(c2cccc(F)c2)C1 (stereo not drawn) [compound 024, N-(1-(3-fluorophenyl)-1,2,3,4-tetrahydroquinolin-3-yl)acrylamide] | < 1000 nM
C=CC(=O)NC1Cc2ccccc2N(c2cccc(F)c2F)C1 (stereo not drawn) [compound 025, N-(1-(2,3-difluorophenyl)-1,2,3,4-tetrahydroquinolin-3-yl)acrylamide] | < 1000 nM
C=CC(=O)NC1Cc2ccccc2N(c2cc(F)ccc2F)C1 (stereo not drawn) [compound 026, N-(1-(2,5-difluorophenyl)-1,2,3,4-tetrahydroquinolin-3-yl)acrylamide] | < 1000 nM
C=CC(=O)NC1Cc2ccccc2N(c2cc(F)cc(F)c2)C1 (stereo not drawn) [compound 027, N-(1-(3,5-difluorophenyl)-1,2,3,4-tetrahydroquinolin-3-yl)acrylamide] | < 1000 nM
C=CC(=O)NC1Cc2ccccc2N(c2cnc(C(F)(F)F)nc2)C1 (stereo not drawn) [compound 031, N-(1-(2-(trifluoromethyl)pyrimidin-5-yl)-1,2,3,4-tetrahydroquinolin-3-yl)acrylamide] | < 1000 nM
C=CC(=O)NC1Cc2ccccc2N(c2cccc(Cl)c2)C1 (stereo not drawn) [compound 032, N-(1-(3-chlorophenyl)-1,2,3,4-tetrahydroquinolin-3-yl)acrylamide] | < 1000 nM
C=CC(=O)NC1Cc2ccccc2N(c2ccc(Cl)cc2)C1 (stereo not drawn) [compound 033, N-(1-(4-chlorophenyl)-1,2,3,4-tetrahydroquinolin-3-yl)acrylamide] | < 1000 nM
C=CC(=O)NC1Cc2ccccc2N(c2ccc(C)cc2C)C1 (stereo not drawn) [compound 034, N-(1-(2,4-dimethylphenyl)-1,2,3,4-tetrahydroquinolin-3-yl)acrylamide] | < 1000 nM
C=CC(=O)NC1Cc2ccccc2N(c2ccc(F)cc2)C1 (stereo not drawn) [compound 035, N-(1-(4-fluorophenyl)-1,2,3,4-tetrahydroquinolin-3-yl)acrylamide] | < 1000 nM
C=CC(=O)NC1Cc2ccccc2N(c2ccc(F)cc2F)C1 (stereo not drawn) [compound 036, N-(1-(2,4-difluorophenyl)-1,2,3,4-tetrahydroquinolin-3-yl)acrylamide] | < 1000 nM

Reference: US20240025856A1, “1,2,3,4-TETRAHYDROQUINOLINE DERIVATIVES AS INHIBITORS OF THE YAP/TAZ-TEAD ACTIVATION FOR TREATING CANCER” (KATHOLIEKE UNIVERSITEIT LEUVEN, priority 2020, published 2024)
